Measured values: ChEMBL document CHEMBL1201862, “PubChem BioAssay data set” (2004)
Each block holds one compound with its values, some of them ahead of it. The source made the active and inactive calls.

Legend:
Assay type in all cases: functional
Caspase-3 = target: T1, Caspase-3 (Homo sapiens, UniProt P42574);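 note: Dose-response selectivity test against caspase-3 for candidate inhibitors of sentrin-specific proteases (SENPs)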
T1 sequence (P42574 whole entry): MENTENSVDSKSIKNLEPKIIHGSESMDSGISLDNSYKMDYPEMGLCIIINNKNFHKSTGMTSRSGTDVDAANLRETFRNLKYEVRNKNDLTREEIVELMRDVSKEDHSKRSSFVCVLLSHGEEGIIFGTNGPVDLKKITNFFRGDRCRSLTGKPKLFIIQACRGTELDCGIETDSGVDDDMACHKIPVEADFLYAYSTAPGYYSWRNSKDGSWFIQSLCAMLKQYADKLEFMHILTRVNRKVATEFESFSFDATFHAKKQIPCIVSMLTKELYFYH

[1] = target: T2, Sentrin-specific protease 7 (Homo sapiens, UniProt Q9BQF6);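 note: Luminescence-based dose-response confirmation of ultra-high-throughput screening hits, measuring inhibition of SENP7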
T2 sequence (Q9BQF6 whole entry): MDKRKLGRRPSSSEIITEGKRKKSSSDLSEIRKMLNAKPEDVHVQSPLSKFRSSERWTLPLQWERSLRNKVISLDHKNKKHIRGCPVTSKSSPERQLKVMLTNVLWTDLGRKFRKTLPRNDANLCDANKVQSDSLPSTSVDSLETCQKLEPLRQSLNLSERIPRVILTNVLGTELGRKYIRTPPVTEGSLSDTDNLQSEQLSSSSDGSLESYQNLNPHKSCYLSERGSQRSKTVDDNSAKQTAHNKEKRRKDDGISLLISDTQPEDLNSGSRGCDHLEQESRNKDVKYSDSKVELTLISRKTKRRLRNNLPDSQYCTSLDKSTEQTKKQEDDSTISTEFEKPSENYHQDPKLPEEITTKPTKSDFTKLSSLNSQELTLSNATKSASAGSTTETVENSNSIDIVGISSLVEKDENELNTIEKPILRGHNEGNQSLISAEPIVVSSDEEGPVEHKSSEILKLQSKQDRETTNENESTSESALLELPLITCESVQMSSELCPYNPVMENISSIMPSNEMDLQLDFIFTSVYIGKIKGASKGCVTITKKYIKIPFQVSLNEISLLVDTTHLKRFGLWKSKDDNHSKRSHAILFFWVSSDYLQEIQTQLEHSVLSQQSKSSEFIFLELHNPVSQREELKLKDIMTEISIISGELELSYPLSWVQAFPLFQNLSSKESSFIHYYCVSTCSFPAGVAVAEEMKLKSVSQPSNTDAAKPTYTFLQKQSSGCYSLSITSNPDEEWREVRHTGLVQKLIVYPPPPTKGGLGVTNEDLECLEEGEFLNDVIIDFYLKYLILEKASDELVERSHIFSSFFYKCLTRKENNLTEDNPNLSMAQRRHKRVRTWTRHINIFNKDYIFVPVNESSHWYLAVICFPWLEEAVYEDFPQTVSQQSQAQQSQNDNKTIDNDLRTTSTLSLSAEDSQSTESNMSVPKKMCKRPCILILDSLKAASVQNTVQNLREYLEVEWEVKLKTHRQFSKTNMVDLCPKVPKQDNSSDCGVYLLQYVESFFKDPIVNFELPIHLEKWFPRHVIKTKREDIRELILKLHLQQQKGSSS

[2] = target: T3, Sentrin-specific protease 6 (Homo sapiens, UniProt Q9GZR1);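 note: Luminescence-based dose-response confirmatory assay of SENP6 inhibition, following up an ultra-high-throughput screen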
T3 sequence (Q9GZR1 whole entry): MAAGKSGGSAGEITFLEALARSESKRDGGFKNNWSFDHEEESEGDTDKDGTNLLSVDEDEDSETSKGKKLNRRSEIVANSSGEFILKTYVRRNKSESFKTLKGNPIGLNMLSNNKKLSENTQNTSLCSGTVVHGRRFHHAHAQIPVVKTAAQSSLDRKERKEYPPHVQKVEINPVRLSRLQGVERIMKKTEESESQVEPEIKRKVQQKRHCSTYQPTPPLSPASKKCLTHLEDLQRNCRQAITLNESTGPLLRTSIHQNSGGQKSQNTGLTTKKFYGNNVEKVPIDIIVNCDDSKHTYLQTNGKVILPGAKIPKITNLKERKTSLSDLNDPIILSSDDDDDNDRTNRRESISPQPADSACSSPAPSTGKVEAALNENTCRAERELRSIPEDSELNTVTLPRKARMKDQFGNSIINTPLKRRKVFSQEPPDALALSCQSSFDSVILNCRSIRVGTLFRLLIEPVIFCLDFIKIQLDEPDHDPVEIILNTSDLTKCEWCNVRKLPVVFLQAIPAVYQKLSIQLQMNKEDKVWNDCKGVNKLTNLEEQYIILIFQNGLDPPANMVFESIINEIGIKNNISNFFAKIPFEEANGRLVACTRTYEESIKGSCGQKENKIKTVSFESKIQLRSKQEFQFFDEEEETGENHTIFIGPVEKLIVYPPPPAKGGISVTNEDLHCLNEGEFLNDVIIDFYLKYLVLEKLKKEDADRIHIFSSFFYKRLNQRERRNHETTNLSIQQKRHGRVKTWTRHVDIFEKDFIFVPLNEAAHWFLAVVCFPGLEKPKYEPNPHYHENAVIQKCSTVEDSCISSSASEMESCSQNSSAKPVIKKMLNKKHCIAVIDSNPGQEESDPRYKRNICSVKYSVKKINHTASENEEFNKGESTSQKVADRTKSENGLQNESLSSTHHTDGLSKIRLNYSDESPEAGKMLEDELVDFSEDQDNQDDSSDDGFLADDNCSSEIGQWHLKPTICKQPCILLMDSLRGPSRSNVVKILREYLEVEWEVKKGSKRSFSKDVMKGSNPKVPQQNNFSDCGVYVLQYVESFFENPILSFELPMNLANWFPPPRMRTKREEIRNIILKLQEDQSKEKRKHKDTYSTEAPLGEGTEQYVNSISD

[3] = target: T4, Sentrin-specific protease 8 (Homo sapiens, UniProt Q96LD8);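 note: luminescence read-out of SENP8 inhibition, dose-response confirmation following an ultra-high-throughput screen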
T4 sequence (Q96LD8 whole entry): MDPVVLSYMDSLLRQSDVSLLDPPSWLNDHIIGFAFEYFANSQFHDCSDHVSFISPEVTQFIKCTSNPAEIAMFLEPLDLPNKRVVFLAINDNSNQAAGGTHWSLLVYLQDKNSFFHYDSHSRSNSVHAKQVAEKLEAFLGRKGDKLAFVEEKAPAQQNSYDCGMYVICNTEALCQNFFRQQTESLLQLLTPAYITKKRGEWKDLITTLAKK

[4] = target: T5, Apoptotic protease-activating factor 1 (Homo sapiens, UniProt O14727)
T5 sequence (O14727 whole entry): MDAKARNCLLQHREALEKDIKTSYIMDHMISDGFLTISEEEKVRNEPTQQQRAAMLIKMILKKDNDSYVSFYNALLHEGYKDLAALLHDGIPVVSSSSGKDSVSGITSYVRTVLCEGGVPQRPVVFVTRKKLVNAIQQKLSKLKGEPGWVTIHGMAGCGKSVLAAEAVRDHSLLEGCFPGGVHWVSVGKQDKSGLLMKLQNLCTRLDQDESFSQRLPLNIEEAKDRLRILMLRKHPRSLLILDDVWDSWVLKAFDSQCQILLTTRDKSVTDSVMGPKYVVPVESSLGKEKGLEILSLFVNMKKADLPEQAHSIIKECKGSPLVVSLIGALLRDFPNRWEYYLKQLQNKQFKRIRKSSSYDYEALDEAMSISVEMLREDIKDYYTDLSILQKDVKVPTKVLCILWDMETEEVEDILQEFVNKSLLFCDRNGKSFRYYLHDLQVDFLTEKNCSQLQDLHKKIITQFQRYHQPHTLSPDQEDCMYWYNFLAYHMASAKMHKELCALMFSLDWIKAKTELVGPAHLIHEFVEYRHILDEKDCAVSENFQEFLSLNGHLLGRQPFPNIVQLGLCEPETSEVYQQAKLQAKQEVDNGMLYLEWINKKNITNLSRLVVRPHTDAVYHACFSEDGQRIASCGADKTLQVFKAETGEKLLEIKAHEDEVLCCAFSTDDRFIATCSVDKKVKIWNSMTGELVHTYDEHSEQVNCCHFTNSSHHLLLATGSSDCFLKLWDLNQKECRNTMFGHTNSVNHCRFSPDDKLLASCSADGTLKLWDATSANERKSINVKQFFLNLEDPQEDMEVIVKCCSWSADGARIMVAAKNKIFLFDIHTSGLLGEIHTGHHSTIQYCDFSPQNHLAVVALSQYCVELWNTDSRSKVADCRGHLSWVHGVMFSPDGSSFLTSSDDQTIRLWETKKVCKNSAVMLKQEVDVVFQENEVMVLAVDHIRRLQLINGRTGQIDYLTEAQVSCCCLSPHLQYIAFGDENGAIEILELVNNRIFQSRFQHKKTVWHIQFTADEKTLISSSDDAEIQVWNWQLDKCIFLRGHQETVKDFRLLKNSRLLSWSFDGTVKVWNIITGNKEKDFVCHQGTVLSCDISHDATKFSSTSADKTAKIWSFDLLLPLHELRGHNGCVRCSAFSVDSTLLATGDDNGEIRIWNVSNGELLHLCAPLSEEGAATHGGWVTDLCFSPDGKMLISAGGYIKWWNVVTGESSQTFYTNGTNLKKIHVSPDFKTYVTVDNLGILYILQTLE

[5] = viability of uninfected HEp-2 cells – cell-based, HTS, cytotoxicity control for RSV inhibitor project, dose response (AID 2410); details: human respiratory syncytial virus
Protein Wnt-3a = Protein Wnt-3a (Mus musculus, UniProt P27467); assay: antagonism of Wnt3a pathway luciferase reporter – Wnt-LIGHT cells, luminescence, selectivity assay for Gli-SUFU antagonist project, dose response (AID 651570); details: read-out: IC50_Mean;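 note: Wnt-LIGHT reporter cells stimulated with conditioned medium from Wnt3a-producing cells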
[6] = bead-based luminescence quenchers, dual-tagged ARNT – biochemical, AlphaScreen, cherry-pick, artefact control for ARNT-TACC3 interaction inhibitor project, dose response (AID 651705);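 note: AlphaScreen bead proximity signal that flags compounds interfering with the detection technology; potency reflects signal decrease which marks the compound as an assay artifact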
[7] = reduction of Shn3 3'UTR-driven luciferase in osteoblasts – cell-based, Clone20 osteoblasts, firefly luciferase, cherry-picked, dose response (AID 624132);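 note: firefly luciferase luminescence from reporter carrying the Shn3 3'UTR in osteoblasts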
[8] = loss of viability in HepG2 cells – cell-based, CellTiter-Glo, cherry-picked, cytotoxicity control for Shn3 inhibitor project, dose response (AID 624134)

Protein Wnt-3a, sequence (P27467 whole entry): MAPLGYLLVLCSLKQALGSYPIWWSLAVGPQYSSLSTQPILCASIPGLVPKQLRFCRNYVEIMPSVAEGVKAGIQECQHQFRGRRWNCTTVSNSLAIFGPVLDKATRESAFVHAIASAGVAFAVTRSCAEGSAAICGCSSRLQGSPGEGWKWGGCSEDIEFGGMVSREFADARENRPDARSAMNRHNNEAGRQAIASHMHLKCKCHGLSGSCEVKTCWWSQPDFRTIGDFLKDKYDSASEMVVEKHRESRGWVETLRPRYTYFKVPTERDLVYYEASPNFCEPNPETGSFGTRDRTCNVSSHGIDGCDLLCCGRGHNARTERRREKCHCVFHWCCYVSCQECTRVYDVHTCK

Structure (SMILES): Nn1c(SCc2ccccc2)nc2c(cnn2-c2ccccc2)c1=O
IC50 (Caspase-3): 36.1 µM (active)
IC50 [1]: 11.4 µM (active)
IC50 [2]: > 100 µM (inactive)
IC50 [3]: > 100 µM (inactive)

Structure (SMILES): O=S(=O)(c1ccc(Br)cc1)N1CCN(c2ccc3nnc(-c4ccccc4)n3n2)CC1
CC50 [5]: 32.9 µM (active)
IC50 [4]: 8.5 µM (active)

Structure (SMILES): O=C(Cn1cc(SCc2ccc(F)cc2)c2ccccc21)N1CCOCC1
IC50 (Caspase-3): 21.1 µM (active)
IC50 [1]: 6.95 µM (active)
IC50 [2]: 21.1 µM (active)
IC50 [3]: 23.2 µM (active)

Structure (SMILES): C[C@H](NC(=O)c1ccco1)C(=O)Nc1nc(-c2ccccn2)cs1
AC50 [6]: 90.1 µM (active)

Structure (SMILES): COc1ccc(-c2noc(CCCCC(=O)N3CCN(c4cc(C)ccc4C)CC3)n2)cc1
AC50 [7]: 1.75 µM (active)
AC50 [8]: 2.2 µM (active)
IC50 (Protein Wnt-3a): 2.84 µM (active)

Further lines, results first:

IC50 [4]: 22.9 µM (active)
Structure (SMILES): O=C1NNC(c2ccccc2)=N/C1=C\c1ccc(Cl)cc1

IC50 (Protein Wnt-3a): 11.4 µM (active)
Structure (SMILES): CCOc1ccc(NC(=S)NNc2ccnc3cc(Cl)ccc23)cc1

IC50 (Protein Wnt-3a): 13.5 µM (active)
Structure (SMILES): O=C(C[C@@H]1C/C=C\C[C@@H](NC(=O)OCC2c3ccccc3-c3ccccc32)C(=O)OC[C@@H](Cc2ccccc2)NC1=O)NCCO
